Calls of active or inactive are those of the source. For most assays here, no stated cut-off is given here; in the data, actives have a measured EC50 and inactives only a lower limit.
Columns and labels:
[1] = target: T1, Corticotropin-releasing factor receptor 2/Corticotropin-releasing factor-binding protein (Homo sapiens, UniProt P24387+Q13324); assay: activators of CRF receptor 2 with binding protein – uHTS hits, confirmation (AID 602473); format: functional; settings: read-out: EC50_Mean
T1 sequence (Q13324 whole entry): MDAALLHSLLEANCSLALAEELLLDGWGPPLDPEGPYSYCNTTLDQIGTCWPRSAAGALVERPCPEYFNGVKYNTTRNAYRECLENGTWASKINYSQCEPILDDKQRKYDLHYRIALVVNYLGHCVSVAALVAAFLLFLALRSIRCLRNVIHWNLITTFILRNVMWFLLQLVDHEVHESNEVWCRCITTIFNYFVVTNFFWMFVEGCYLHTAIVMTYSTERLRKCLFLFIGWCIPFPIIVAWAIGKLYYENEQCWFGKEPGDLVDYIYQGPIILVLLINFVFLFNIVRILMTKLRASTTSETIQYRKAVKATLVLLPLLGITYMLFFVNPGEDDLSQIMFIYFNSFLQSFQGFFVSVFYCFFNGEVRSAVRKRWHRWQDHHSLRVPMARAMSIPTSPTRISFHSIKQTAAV
T1 sequence (P24387 whole entry): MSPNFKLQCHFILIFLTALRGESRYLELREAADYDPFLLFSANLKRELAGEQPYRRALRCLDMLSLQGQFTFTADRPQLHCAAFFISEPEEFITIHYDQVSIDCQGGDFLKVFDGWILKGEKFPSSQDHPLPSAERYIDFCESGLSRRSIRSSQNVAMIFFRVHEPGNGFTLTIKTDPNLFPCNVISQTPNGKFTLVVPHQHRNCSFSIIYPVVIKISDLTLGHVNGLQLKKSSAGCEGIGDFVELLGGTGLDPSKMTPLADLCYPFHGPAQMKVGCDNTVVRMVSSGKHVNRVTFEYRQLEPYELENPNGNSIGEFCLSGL

Aminopeptidase N = target: T2, Aminopeptidase N (Plasmodium falciparum FcB1/Columbia, UniProt O96935); assay: malaria alanyl aminopeptidase activity blockers – biochemical, fluorogenic H-Leu-NHMec substrate, 1536-well (AID 1445); set-up: species or system Plasmodium falciparum 3D7, 3D7
T2 sequence (O96935 whole entry): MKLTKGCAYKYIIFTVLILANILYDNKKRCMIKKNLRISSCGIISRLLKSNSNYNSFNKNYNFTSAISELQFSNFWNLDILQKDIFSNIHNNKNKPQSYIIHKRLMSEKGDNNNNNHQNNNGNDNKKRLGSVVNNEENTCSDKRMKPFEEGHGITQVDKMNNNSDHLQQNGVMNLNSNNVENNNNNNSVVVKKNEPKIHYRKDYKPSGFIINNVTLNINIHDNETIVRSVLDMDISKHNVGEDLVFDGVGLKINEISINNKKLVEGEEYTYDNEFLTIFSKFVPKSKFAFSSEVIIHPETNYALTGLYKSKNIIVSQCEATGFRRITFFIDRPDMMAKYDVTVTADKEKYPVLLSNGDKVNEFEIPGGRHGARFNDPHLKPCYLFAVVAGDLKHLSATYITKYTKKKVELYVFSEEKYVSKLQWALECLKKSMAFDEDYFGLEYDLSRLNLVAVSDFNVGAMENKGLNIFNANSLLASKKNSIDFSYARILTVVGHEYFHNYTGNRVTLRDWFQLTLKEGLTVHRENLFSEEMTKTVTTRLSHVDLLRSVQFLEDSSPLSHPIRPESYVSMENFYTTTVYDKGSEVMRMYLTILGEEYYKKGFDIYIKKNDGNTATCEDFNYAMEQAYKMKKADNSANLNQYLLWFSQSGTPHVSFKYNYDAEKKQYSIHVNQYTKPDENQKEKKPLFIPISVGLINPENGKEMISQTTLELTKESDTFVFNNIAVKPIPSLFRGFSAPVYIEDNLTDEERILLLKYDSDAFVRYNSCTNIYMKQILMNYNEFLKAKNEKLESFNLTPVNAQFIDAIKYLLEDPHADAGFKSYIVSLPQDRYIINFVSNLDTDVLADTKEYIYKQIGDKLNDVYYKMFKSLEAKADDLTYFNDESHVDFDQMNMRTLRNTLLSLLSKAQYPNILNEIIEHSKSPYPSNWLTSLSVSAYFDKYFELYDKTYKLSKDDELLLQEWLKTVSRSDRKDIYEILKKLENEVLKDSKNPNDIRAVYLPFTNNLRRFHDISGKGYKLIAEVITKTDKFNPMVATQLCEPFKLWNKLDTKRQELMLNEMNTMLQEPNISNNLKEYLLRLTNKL

cells [2] = format: functional, cell-based
cells [3] = format: functional, cell-based; remark: listed apart in the source
[4] = viability of uninfected HEp-2 cells – cell-based, HTS, cytotoxicity control for RSV inhibitor project, dose response (AID 2410); format: functional; settings: human respiratory syncytial virus
[5] = target: T3, Zinc finger protein mex-5 (Caenorhabditis elegans, UniProt Q9XUB2); assay: potency of MEX-5 RNA-binding blockers – biochemical, C. elegans, fluorescence polarization, dose response (AID 1960)
T3 sequence (Q9XUB2 whole entry): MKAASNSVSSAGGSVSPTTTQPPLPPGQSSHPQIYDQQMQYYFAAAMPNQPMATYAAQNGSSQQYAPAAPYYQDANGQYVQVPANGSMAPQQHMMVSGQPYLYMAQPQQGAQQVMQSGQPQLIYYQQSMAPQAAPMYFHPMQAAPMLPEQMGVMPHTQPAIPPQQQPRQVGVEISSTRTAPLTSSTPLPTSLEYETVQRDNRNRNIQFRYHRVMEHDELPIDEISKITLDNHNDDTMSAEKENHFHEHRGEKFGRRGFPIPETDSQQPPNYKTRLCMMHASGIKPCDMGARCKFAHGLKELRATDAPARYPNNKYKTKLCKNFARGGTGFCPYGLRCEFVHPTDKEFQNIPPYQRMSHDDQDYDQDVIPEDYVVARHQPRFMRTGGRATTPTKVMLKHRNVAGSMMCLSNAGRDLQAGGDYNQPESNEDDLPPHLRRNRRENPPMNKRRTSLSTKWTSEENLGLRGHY

[6] = target: T4, RNA-binding protein pos-1 (Caenorhabditis elegans, UniProt G5EF15); assay: disruptors of C. elegans POS-1 RNA interaction – biochemical, fluorescence polarization, dose response (AID 1964);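 further: purified POS-1 fused to maltose binding protein made in E. coli; potency of compounds blocking POS-1 binding to fluorescent RNA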
T4 sequence (G5EF15 whole entry): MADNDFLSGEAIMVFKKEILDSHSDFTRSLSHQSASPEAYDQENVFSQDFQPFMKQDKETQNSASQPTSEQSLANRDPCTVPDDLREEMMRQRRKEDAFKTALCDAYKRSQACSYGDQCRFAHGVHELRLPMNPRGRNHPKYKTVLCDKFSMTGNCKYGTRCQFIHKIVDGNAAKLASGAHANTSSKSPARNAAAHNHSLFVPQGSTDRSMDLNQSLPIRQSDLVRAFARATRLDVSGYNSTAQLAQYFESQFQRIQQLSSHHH

[7] = target: T5, Replicative DNA helicase DnaB (Mycobacterium tuberculosis, UniProt P9WMR3); assay: DnaB intein splicing inhibitors, dose response, biochemical, cell-free fluorescence (AID 449749); format: functional
T5 sequence (P9WMR3 whole entry): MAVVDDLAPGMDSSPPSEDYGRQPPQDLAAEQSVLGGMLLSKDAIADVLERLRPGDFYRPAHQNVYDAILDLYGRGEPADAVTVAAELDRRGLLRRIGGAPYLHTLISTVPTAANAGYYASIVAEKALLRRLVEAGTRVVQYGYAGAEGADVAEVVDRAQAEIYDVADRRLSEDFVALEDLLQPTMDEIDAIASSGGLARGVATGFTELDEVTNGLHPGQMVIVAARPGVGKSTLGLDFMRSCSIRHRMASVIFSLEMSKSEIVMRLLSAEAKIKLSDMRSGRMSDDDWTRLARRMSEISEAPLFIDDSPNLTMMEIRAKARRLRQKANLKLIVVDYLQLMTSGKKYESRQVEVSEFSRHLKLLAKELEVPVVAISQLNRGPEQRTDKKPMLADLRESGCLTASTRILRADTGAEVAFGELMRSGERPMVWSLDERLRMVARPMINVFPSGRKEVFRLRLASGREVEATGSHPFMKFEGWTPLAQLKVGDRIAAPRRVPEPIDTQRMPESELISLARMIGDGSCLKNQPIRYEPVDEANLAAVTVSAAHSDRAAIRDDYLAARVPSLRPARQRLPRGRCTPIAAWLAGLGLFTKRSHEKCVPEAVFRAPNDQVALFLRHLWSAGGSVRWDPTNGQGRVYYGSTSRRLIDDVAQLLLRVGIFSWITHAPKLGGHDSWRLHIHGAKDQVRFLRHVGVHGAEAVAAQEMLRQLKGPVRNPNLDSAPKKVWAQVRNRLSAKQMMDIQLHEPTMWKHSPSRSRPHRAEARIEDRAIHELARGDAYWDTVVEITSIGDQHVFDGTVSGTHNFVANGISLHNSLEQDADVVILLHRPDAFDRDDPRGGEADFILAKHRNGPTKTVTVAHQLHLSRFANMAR

Protein RecA = target: T6, Protein RecA (Mycobacterium tuberculosis, UniProt P9WHJ3); assay: Fluorescence Cell-Free Homogeneous Dose Retest to Identify Inhibitors of RecA-Intein Splicing Activity. [Related pubchem assays (depositor defined):AID2097, AID2223, AID489010, AID492950]; format: functional
T6 sequence (P9WHJ3 whole entry): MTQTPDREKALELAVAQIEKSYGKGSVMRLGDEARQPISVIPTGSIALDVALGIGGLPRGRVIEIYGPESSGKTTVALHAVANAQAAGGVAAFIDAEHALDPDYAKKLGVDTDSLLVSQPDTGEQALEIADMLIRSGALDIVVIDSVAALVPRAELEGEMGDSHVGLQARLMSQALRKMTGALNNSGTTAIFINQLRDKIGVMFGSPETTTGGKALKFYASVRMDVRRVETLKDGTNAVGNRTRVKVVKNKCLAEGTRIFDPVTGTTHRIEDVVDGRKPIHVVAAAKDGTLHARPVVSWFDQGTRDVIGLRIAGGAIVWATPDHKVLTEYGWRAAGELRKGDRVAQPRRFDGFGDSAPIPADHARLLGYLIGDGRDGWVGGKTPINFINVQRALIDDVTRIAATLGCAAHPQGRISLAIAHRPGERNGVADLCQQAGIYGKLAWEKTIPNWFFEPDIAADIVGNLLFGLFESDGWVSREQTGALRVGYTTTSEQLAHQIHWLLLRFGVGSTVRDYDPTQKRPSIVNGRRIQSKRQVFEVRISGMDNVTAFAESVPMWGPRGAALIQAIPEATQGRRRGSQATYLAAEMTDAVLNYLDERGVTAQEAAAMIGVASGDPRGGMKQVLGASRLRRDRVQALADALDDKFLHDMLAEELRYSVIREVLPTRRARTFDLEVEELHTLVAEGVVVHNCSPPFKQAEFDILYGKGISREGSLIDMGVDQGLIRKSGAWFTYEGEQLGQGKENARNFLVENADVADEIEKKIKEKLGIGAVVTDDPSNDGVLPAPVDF

For `COc1cc(/C=C2\C(=N)N3C(=NC2=O)Sc2cc(S(C)(=O)=O)ccc23)ccc1O`, the EC50 [1] was 5.19 µM (active) and the IC50 (Aminopeptidase N) was 45.7 µM (active).

For `CCCOc1ccc(C(C)=O)cc1CSc1nc(O)cc(=O)[nH]1`, the IC50 (Aminopeptidase N) was 109 µM (active).

For `CCOC(=O)c1sc(Nc2cccc(Cl)c2)nc1C`, the EC50 (cells [2]) was > 350 µM (not active), the EC50 (cells [3]) was 19.5 µM (active) and the CC50 [4] was > 50 µM (active).

With `Cc1cccc(S(=O)(=O)C(C#N)c2nc3ccccc3nc2N2CCOCC2)c1` (centres undefined) the EC50 [5] was > 300 µM (not active) and the EC50 [6] was 163 µM (active).

For `CCOC(=O)C1=C(Nc2ccccc2)S/C(=C\c2ccc(OCC(=O)O)c(OCC)c2)C1=O`, the IC50 (Aminopeptidase N) was 60.2 µM (active).

For `O=C(COc1ccccc1/C=C1\SC(=O)NC1=O)Nc1ccccc1`, the IC50 (Aminopeptidase N) was 32.6 µM (active).

In the case of `Cc1ccc(C(=O)NC(=S)NNS(=O)(=O)c2ccc(C)cc2)cc1`, the AC50 [7] is reported as 58.9 µM (active), the EC50 (cells [2]) is reported as > 350 µM (not active) and the EC50 (cells [3]) is reported as > 350 µM (not active). The EC50 (Protein RecA) was 146 µM (active).

Reference: ChEMBL document CHEMBL1201862, “PubChem BioAssay data set” (2004)
